Key:
HL-60 cells = experiment: HL-60 cell differentiation (NBT reduction); type: cell-based; details: concentration leading to 50% of maximal differentiation achieved with 100-1000 nM calcitriol, 3 days, read-out: ED50 (the source's name)
Method: HL-60 Cell Differentiation
The induction of differentiation of HL-60 cells was assayed by measuring their oxidative burst potential via the reduction of nitrobluetetrazolium (NBT).
HL-60 cells (30,000 cells/90 μl of RPMI/supplemented medium) were seeded into flat-bottomed microtiter wells. Immediately after seeding, 10 μl of test compounds diluted in supplemented RPMI medium were added to the wells at the same time to yield final concentrations between 10^−11 and 10^−6 M (starting from stock solutions of 10^−2 M in ethanol stored at −20° C. and protected from light).

HaCaT cell line = experiment: Inhibition of keratinocyte proliferation (3H-thymidine uptake); type: cell-based, human; details: 3H-thymidine incorporation after 6 days of culture in presence of the test compound
[1] = tested on: MCF-7 breast carcinoma cells; experiment: Antiproliferative activity in MCF-7 breast carcinoma cells (MTT); type: cell-based; details: inhibition of cell growth, day 3 to 7 post drug addition, Reed and Muench formula
[2] = tested on: T47-D breast carcinoma cells; experiment: Antiproliferative activity in T47-D breast carcinoma cells (MTT); type: cell-based; details: inhibition of cell growth, day 3 to 7 post drug addition, Reed and Muench formula

Compound | EC50 (HL-60 cells) [µM] | IC50 [1] [µM] | other results
1,25-Dihydroxy-16,23Z-diene-26,27-hexafluoro-20-epi-19-nor-cholecalciferol | 0.0045 |  | 
C=C1C(=CC=C2CCCC3(C)C(C(C)C/C=C\C(O)(C(F)(F)F)C(F)(F)F)=CCC23)CC(O)CC1O (stereo not drawn) [1,25-Dihydroxy-16,23Z-diene-26,27-hexafluoro-20-epi-cholecalciferol] | 0.0023 |  | 
C=C1C(=CC=C2CCCC3(C)C(C(C)CCCC(C)(C)O)=CCC23)CC(O)CC1O (stereo not drawn) [1,25-Dihydroxy-16-ene-20-epi-cholecalciferol] | 0.0025 |  | IC50 (HaCaT cell line): 0.004 µM
C=C1C(=CC=C2CCCC3(C)C(C(C)CC#CC(C)(C)O)=CCC23)CC(O)CC1O (stereo not drawn) [1,25-Dihydroxy-16-ene-23-yne-20-epi-cholecalciferol] | 0.015 |  | IC50 (HaCaT cell line): 0.093 µM
CCC(O)(C#CCC(C)C1=CCC2C(=CC=C3CC(O)CC(O)C3)CCCC12C)CC (stereo not drawn) [1,25-Dihydroxy-16-ene-23-yne-26,27-bishomo-19-nor-20-epi-cholecalciferol] |  | 0.012 | 
C=C1/C(=C\C=C2/CCC[C@]3(C)C([C@@H](C)CC#CC(O)(CC)CC)=CC[C@@H]23)C[C@@H](O)C[C@@H]1O [1,25-Dihydroxy-16-ene-23-yne-26,27-bishomo-20-epi-chole-calciferol] |  | 0.011 | 
C=C1/C(=C\C=C2/CCC[C@]3(C)C([C@@H](C)CC#CC(O)(C(F)(F)F)C(F)(F)F)=CC[C@@H]23)C[C@@H](O)C[C@@H]1O [1,25-Dihydroxy-16-ene-23-yne-26,27-hexafluoro-20-epi-cholecalciferol] | 0.002 | 0.00095 | IC50 [2]: 0.0067 µM; IC50 (HaCaT cell line): 0.05 µM
C=C1/C(=C\C=C2/CCC[C@]3(C)[C@@H]([C@H](C)CCCC(C)(C)O)CC[C@@H]23)C[C@@H](O)C[C@@H]1O [1,25-Dihydroxy-cholecalciferol, reference compound] |  |  | IC50 (HaCaT cell line; Homo sapiens, HaCaT): 0.055 µM
C=C1/C(=C\C=C2/CCC[C@]3(C)C([C@@H](C)C/C=C/C(O)(C(F)(F)F)C(F)(F)F)=CC[C@@H]23)C[C@@H](O)C[C@@H]1F [1α-Fluoro-25-hydroxy-16,23E-diene-26,27-hexafluoro-20-epi-cholecalciferol] |  | 0.009 | 
C=C1C(=CC=C2CCCC3(C)C(C(C)C/C=C\C(O)(C(F)(F)F)C(F)(F)F)=CCC23)CC(O)CC1F (stereo not drawn) [1α-Fluoro-25-hydroxy-16,23Z-diene-26,27-hexafluoro-20-epi-cholecalciferol] | 0.02 |  | 
C=C1/C(=C\C=C2/CCC[C@]3(C)C([C@@H](C)C/C=C/C(O)(CC)CC)=CC[C@@H]23)C[C@@H](O)C[C@@H]1F [1α-Fluoro-25-hydroxy-16-23E-diene-26,27-bishomo-20-epi-cholecalciferol] |  | 0.03 | 
C=C1C(=CC=C2CCCC3(C)C(C(C)CC#CC(O)(C(F)(F)F)C(F)(F)F)=CCC23)CC(O)CC1F (stereo not drawn) [1α-Fluoro-25-hydroxy-16-ene-23-yne-26,27-hexafluoro-20-epicholecalciferol] |  | 0.011 | 

Reference: US6452028B1, “Vitamin D3 analogs” (Hoffmann-La Roche Inc., priority 1996, dated 2002)
